Measured values reported in US20030158254A1, “Engineering absorption of therapeutic compounds via colonic transporters” (XenoPort, Inc., priority 2002, published 2003).

How the values were obtained:
[1] = biological target: T1, hSMVT (Homo sapiens, UniProt Q9Y289); assay: Radiolabeled competition assay in SMVT-expressing CHO cells; format: cell-based; settings: radiolabeled competition assay in SMVT-expressing CHO cells; read-out: IC50
T1 sequence (Q9Y289 1-635): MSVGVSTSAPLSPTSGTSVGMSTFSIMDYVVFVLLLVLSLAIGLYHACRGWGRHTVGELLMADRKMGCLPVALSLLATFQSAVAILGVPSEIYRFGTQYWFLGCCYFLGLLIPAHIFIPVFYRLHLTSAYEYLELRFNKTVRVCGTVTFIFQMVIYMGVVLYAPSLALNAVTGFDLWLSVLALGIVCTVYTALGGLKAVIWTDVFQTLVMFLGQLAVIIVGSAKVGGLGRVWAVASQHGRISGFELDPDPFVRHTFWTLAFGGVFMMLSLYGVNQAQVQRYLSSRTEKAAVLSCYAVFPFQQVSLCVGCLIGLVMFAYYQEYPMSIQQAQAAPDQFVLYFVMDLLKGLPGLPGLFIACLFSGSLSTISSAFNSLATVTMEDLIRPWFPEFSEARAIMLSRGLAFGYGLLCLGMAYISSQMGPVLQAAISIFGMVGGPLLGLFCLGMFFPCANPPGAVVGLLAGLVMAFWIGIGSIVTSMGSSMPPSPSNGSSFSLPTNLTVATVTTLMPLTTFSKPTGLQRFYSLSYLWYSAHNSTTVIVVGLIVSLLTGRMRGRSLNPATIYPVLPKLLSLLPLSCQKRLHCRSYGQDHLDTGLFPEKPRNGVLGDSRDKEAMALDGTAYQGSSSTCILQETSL
Description: The complete open reading frame of human ATBO+(SLC6A14) and SMVT (SLC5A6) were amplified from human cDNA prepared from liver or intestine mRNA. […] Amplified PCR products were cloned into a modified version of the mammalian expression vector pcDNA3 (termed pMO) that was engineered to contain the 5′ and 3′ untranslated regions from the Xenopus beta-globin gene. All clones were completely sequenced and tested for function by transient transfection in HEK293 cells.
For cell uptake studies, stable CHOK1 clones were seeded into polylysine coated 96-well microtitre plates and grown for 2-3 days. Cells were incubated with experimental solutions (combinations of radiolabeled and unlabeled compounds) for 30 minutes at room temperature, washed four times, and lysed in scintillation solution. Accumulation of radiolabeled molecules was measured in a microtitre scintillation plate reader (Perkin Elmer). Inhibition constants (IC50s) were calculated using curve-fitting software (Prism).

[2] = system: Caco-2 cells; assay: Caco-2 transport with and without PEPT1/PEPT2 inhibitor Lys(ε-Dansyl)-Leu; format: cell-based, human; settings: apical to basolateral, 600 μM Lys(ε-Dansyl)-Leu, FIG. 2
Description: Caco-2 cells are derived from the human colon and naturally express a number of colon-expressed transporters. The cells can be used to screen agents or conjugates for capacity to be transported by a colon expressed transporter. By screening agents or conjugates in the presence and absence of the specific PEPT1 and PEPT2 inhibitor Lys(ε-Dansyl)-Leu, one can determine whether PEPT1 and/or PEPT2 is a transporter mediating transport of the agent or conjugate. The role of PEPT1 and/or PEPT2 is shown by a decrease in transport in the presence of Lys(ε-Dansyl)-Leu.
1. Caco-2 cells are plated in either a 12 or 24 well Transwell plate and allowed to differentiate for 19-30 days prior to screening. Day 21 cells are optimal.
2. Dilutions of test compounds with or without Lys(ε-Dansyl)-Leu are prepared in assay buffer. pH 6.0
a. Concentrations of compounds are generally 1 mM with or without 600 μM Lys(Dansyl)-leucine.
b. 20 μM Propidium Iodide added as marker.
3. Spent media is aspirated from apical and basolateral chambers. To the apical chambers, 500 μL of test compound with or without Lys(ε-Dansyl)-Leu is added (125 μL for 24 well Transwell plates).
4. In the basolateral chambers, HBSS buffer pH 7.4 is added (1.5 mL for 12 well format, 875 μL for 24 well format).
5. At each timepoint, 50 μL is sampled from basolateral chambers and transferred to a LC/MS plate (Nunc, PP round bottom).
6. […]

[3] = Uptake into plasma of Compound V following oral and intracolonic administration; format: in vivo, rat; settings: FIG. 4
Protocol: Rats were obtained commercially and were pre-cannulated in the both the ascending colon and the jugular vein. Animals were conscious at the time of the experiment. All animals were fasted overnight and until 4 hours post-dosing. Prodrugs were administered as a solution (in water or polyethylene glycol 400) directly into the colon via the cannula at a dose equivalent to 25 mg of gabapentin per kg. Blood samples (0.5 mL) were obtained from the jugular cannula at intervals over 8 hours and were quenched immediately by addition of acetonitrile/methanol to prevent further conversion of the prodrug. Blood samples were analyzed as described in the attached sample analysis summary.
FIG. 4 compares uptake into the plasma of Compound V following oral and intracolonic administration. […] The levels from oral and colonic administration cross at about 7 hr.

For CC(C)(N)C(=O)NCC1(CC(=O)O)CCCCC1 [Compound V, a-aminoisobutyryl gabapentin], the IC50 [1] was 320 µM, the “Transport across Caco-2 cells in presence and absence of Lys(ε-Dansyl)-Leu” value [2] was “inhibited by Lys(ε-Dansyl)-Leu” and the “Plasma peak after colonic dosing compared with oral” value ([3]; intracolonic versus oral) was “lower peak at a later time”. The “Time at which plasma levels from oral and colonic administration cross” value ([3]; oral versus intracolonic) was “about 7 hr”.
